Key:
[1] = Daytime color of polyurethane film with dye laminated to retroreflective sheeting; assay type: physicochemical; settings: dye 0.2 wt.-% in aliphatic polyester polyurethane PN03.214, 0.1 mm film on Scotchlite 3970
Description: (§1) The daytime color of each article was measured using a Labsphere BFC-450 Bispectral Colorimeter commercially available from Labsphere, North Sutton, N.H. The daytime chromaticity (x,y), total luminance factor (YT), and fluorescence luminance factor (YF; which is a measure of the fluorescent properties of the article) calculated for the CIE D65 and the CIE 1931 observer are provided in TABLE II
Examples 24-27 were prepared as described in Examples 8-10, except that the dyes of Examples 1, 3, 6-(2-hydroxy-ethoxy)-14H-anthra(2,1,9-mna)thioxanthene-14-one (described by Carlini et al.) and 6-methoxy-14H-anthra(2,1,9-mna)thioxanthene-14-one were independently used at 0.2 wt.-% loading in an aliphatic polyester polyurethane resin commercially available from Huntsman Polyurethanes, West Deptford, N.J., USA under the trade designation “PN03.214”. The extrusion conditions for the polyurethane were 154-191° C. and the resultant film thickness was 0.1 mm.
The resultant films were laminated to Scotchlite 3970 reflective sheeting on aluminum panels as described in Examples 8-10. Color values were measured as described in Examples 8-10 and the results set out in TABLE VII.

[2] = Daytime color and visual inspection of PMMA film with dye laminated to retroreflective sheeting; assay type: physicochemical; settings: for visual inspection of film for undissolved dye: extruded PMMA CP923 film 0.1 mm, 6-methoxy dye at 1 wt.-%, dyes of Examples 1-2 at up to 1.27 wt-%
Description: as §1
Examples 11-16 were prepared with the compounds of Examples 1-2 and 6-methoxy-14H-anthra(2,1,9-mna)thioxanthene-14-one in polymethylmethacrylate (PMMA) resin at the wt.-% of dye shown in TABLE III. The samples were prepared by dry blending the dye with a medium impact modified grade PMMA resin commercially available from Ineos Acrylics Inc., Cordova, Tenn. under the trade designation “CP923”. Films of 0.1 mm thickness were extruded through a single screw extruder with three heating zones set at 249° C. to 260° C. […] Examples 11 and 12 and Examples 13 and 14 had equal molar loadings of dye.
The resultant films were laminated to Scotchlite 3970 reflective sheeting on aluminum panels as described in Examples 8-10. Color values were measured as described in Examples 8-10 and the results set out in TABLE III.

[3] = Daytime color of polycarbonate sheet with dye laminated to retroreflective sheeting (Labsphere BFC-450 Bispectral Colorimeter); assay type: physicochemical; settings: 0.2% dye in polycarbonate FCR-2407, 0.1 mm sheet on Scotchlite 3970; CIE D65, CIE 1931 observer
Description: Examples 8-10 were prepared with the compounds of Examples 1 and 2 and 6-methoxy-14H-anthra(2,1,9-mna)thioxanthene-14-one at a 0.2% loading in polycarbonate FCR-2407. Extrusion conditions for the polycarbonate were 260-304° C. using a single screw extruder. Optically transparent pressure sensitive adhesive with a liner on both sides of the adhesive was laminated to the 0.1 mm thick sheet of polycarbonate by removing one of the liners from the adhesive and then applying the exposed adhesive to the polycarbonate sheet with two passes of a roller using hand pressure.
The remaining liner was removed from the adhesive and the polycarbonate sheet construction was laminated to retroreflective sheeting commercially available from 3M under the trade designation “Scotchlite Diamond Grade LDP Reflective Sheeting Series 3970” (Scotchlite 3970) with two passes of a roller using hand pressure. The Scotchlite 3970 reflective sheeting had previously been laminated to a 7 cm wide by 28 cm long aluminum panel (6061T6 alloy with etch and desmut surface from Q Panel Company, Cleveland, Ohio) with two passes of a roller with hand pressure.
as §1

[4] = Daytime color of Paraloid B66 dye coating on retroreflective sheeting; assay type: physicochemical; settings: for YF (fluorescence luminance factor) / YT (total luminance factor) / x (daytime chromaticity) / y (daytime chromaticity): 0.10 parts dye in 64.8 parts Dowanol DPMA and 38.2 parts Paraloid B66, coated on Scotchlite 3970 with #16 wire wound bar, dried
Description: as §1
Examples 19-21 were prepared by independently stirring 0.10 parts of the dyes of Examples 1 and 3 and 6-methoxy-14H-anthra(2,1,9-mna)thioxanthene-14-one in a clear vehicle solution of 64.8 parts Dowanol DPMA and 38.2 parts Paraloid B66.
The fluorescent dye solutions were coated on Scotchlite 3970 reflective sheeting using a #16 wire wound bar. The coating was air dried for 5 minutes and then dried in a 120° C. oven for 45 minutes. Color values were measured as described in Examples 8-10 and the results set out in TABLE V.

[5] = Dye concentration in saturated acetone solution at room temperature; assay type: physicochemical; settings: 72 hours at RT, 0.45 micron PTFE filtered, absorbance at 535 nm
Description: Examples 4-7 were prepared by placing 60-100 mg of each of the compounds of Examples 1-3 and 6-methoxy-14H-anthra(2,1,9-mna)thioxanthene-14-one (described by Carlini et al.) in a vial with 5.0 ml acetone. […] Each vial was hand shaken and the solution was filtered using a 0.45 micron polytetrafluoroethylene (PTFE) filter commercially available from VWR Scientific Products, West Chester, Pa. under the trade designation “Acrodisc 13CR PTFE”.
The amount of fluorescent dye in the saturated acetone solution was determined by measuring the major dye absorption band at 535 nm using a UV-Vis Spectrophotometer commercially available from Shimadzu Scientific Instruments, Inc., Columbia, Md. under the trade designation “Shimadzu model UV-2401PC”. Dye concentrations were calculated by measuring the absorbance of the saturated acetone solution, and then diluting that solution until absorbance of the resulting solution was below 3. The dyes were assumed to have equal absorbance per mole. Using the dilution and an absorbance coefficient of 16,100 A/mol/L (coefficient obtained in acetone for the dye of Example 3) and assuming a Beer's Law relationship, the concentration of dye in each saturated solution was calculated and is set out in TABLE I

[6] = Daytime color of copolyester film with dye laminated to retroreflective sheeting; assay type: physicochemical; settings: dye 0.2 wt.-% in copolyester resin, 0.1 mm film on Scotchlite 3970
Description: as §1
Examples 17-18 were prepared as described in Examples 8-10, except that the dyes of Examples 1 and 2 at a 0.2 wt.-% loading were independently incorporated into a copolyester resin. The copolyester resin was prepared using terephthalic and isophthalic acid in an 80/20 ratio and ethylene glycol in the conventional manner and analogous to the production of polyethylene terephthalate according to the method described in Macromolecular Syntheses, A Periodic Publication of Methods for the Preparation of Macromolecules, Collective Volume I, 1977, J. A. Moore, Editor, (John Wiley & Sons, New York; 1978);p. 17-21. The extrusion conditions for the copolyester were 254-260° C. using a single screw extruder and the resultant film thickness was 0.1 mm.
The resultant films were laminated to Scotchlite 3970 reflective sheeting on aluminum panels as described in Examples 8-10. Color values were measured as described in Examples 8-10 and the results set out in TABLE IV.

[7] = Daytime color of vinyl film with dye laminated to retroreflective sheeting; assay type: physicochemical; settings: 0.18 g dye in 65 g GEON 178 / Elvacite 2013 mixture, 0.04 mm vinyl film on Scotchlite 3970
Description: as §1
Examples 22-23 were prepared by independently stirring 0.18 g of the dye of Examples 1 and 3 into 65 g of a mixture composed of 42 wt.-% DIBK, xylol, and mineral spirit (1.7:2.3:1), 44 wt.-% of a polyvinyl chloride dispersion commercially available from PolyOne, Cleveland, Ohio under the trade designation “GEON 178” and 14 wt.-% of a polyacrylate commercially available from Ineos Acrylics Inc., Cordova, Tenn. under the trade designation “Elvacite 2013”. Each mixture was allowed to stand at room temperature for one hour prior to knife coating onto a pre-sized paper substrate. Each coated substrate was placed in a 150° F. (66° C.) oven for 1.5 minutes, followed by a 300° F. (149° C.) oven for 1.0 minute and a 400° F. (204° C.) oven for 0.75 minute, resulting in a 0.04 mm thick fluorescent colored vinyl film.
The resultant films were laminated to Scotchlite 3970 reflective sheeting on aluminum panels as described in Examples 8-10. Color values were measured as described in Examples 8-10 and the results set out in TABLE VI.

[8] = dye 0.3 wt-% in PMMA CP923, 0.1 mm film on Scotchlite 3970
[9] = dye 1.0 wt-% in PMMA CP923, 0.1 mm film on Scotchlite 3970
[10] = dye 0.2 wt-% in PMMA CP923, 0.1 mm film on Scotchlite 3970

O=c1c2ccccc2c2cc(OCCO)c3sc4ccccc4c4ccc1c2c34 [6-(2-hydroxy-ethoxy)-14H-anthra(2,1,9-mna)thioxanthene-14-one, reference compound]
X (daytime chromaticity) [1]: 0.6000
YF (fluorescence luminance factor) [1]: 10.09
YT (total luminance factor) [1]: 14.71
y (daytime chromaticity) [1]: 0.2756

COc1cc2c3ccccc3c(=O)c3ccc4c5ccccc5sc1c4c32 [6-methoxy-14H-anthra(2,1,9-mna)thioxanthene-14-one, reference compound]
X (daytime chromaticity) [2, 8]: 0.6072
YF (fluorescence luminance factor) [2, 8]: 11.64
YT (total luminance factor) [2, 8]: 17.02
y (daytime chromaticity) [2, 8]: 0.3117
X (daytime chromaticity) [2, 9]: 0.5723
YF (fluorescence luminance factor) [2, 9]: 3.67
YT (total luminance factor) [2, 9]: 5.28
y (daytime chromaticity) [2, 9]: 0.3064
visual inspection of film for undissolved dye [2]: particles of dye in the film
X (daytime chromaticity) [1]: 0.5989
YF (fluorescence luminance factor) [1]: 9.69
YT (total luminance factor) [1]: 14.81
y (daytime chromaticity) [1]: 0.2780
YF (fluorescence luminance factor) [3]: 16.15
YT (total luminance factor) [3]: 28.24
x (daytime chromaticity) [3]: 0.6163
y (daytime chromaticity) [3]: 0.3025
YF (fluorescence luminance factor) [4]: 1.12
YT (total luminance factor) [4]: 17.05
x (daytime chromaticity) [4]: 0.3977
y (daytime chromaticity) [4]: 0.3225
Dye Concentration in Acetone at RT [5]: 0.06 mg/mL

CCCCC(CC)COc1cc2c3ccccc3c(=O)c3ccc4c5ccccc5sc1c4c32 (stereo not shown) [Example 2, 6-[(2-Ethylhexyl)oxy]-14H-anthra[2,1,9-mna]thioxanthene-14-one]
X (daytime chromaticity) [2, 10]: 0.6064
YF (fluorescence luminance factor) [2, 10]: 14.69
YT (total luminance factor) [2, 10]: 31.13
y (daytime chromaticity) [2, 10]: 0.3113
visual inspection of film for undissolved dye [2]: uniform appearance with no undissolved dye seen
YF (fluorescence luminance factor) [6]: 12.77
YT (total luminance factor) [6]: 19.91
x (daytime chromaticity) [6]: 0.5627
y (daytime chromaticity) [6]: 0.2785
YF (fluorescence luminance factor) [3]: 16.6
YT (total luminance factor) [3]: 32.05
x (daytime chromaticity) [3]: 0.5336
y (daytime chromaticity) [3]: 0.2979
melting point: 175 to 177 °C
Dye Concentration in Acetone at RT [5]: 0.96 mg/mL

CC(C)CC(CC(C)C)Oc1cc2c3ccccc3c(=O)c3ccc4c5ccccc5sc1c4c32 [Example 3, 6-(1-Isobutyl-3-methylbutoxy)-14H-anthra[2,1,9-mna]thioxanthene-14-one]
X (daytime chromaticity) [1]: 0.5970
YF (fluorescence luminance factor) [1]: 11.62
YT (total luminance factor) [1]: 17.66
y (daytime chromaticity) [1]: 0.2886
YF (fluorescence luminance factor) [4]: 17.05
YT (total luminance factor) [4]: 33.17
x (daytime chromaticity) [4]: 0.4971
y (daytime chromaticity) [4]: 0.3113
appearance of coated article ([4]; dye in Paraloid B66 coating on Scotchlite 3970): bright fluorescent pink appearance
Y (daytime chromaticity) [7]: 0.2609
YF (fluorescence luminance factor) [7]: 12.92
YT (total luminance factor) [7]: 24.21
x (daytime chromaticity) [7]: 0.4952
Dye Concentration in Acetone at RT [5]: 2.98 mg/mL

Source: patent US6841236B2, “Articles containing thioxanthone dyes” (3M Innovative Properties Co., priority 2001, dated 2005)
